These are literature values, as cited in publication PMC11902296, “cAmbly: A non-toxic cell-penetrating peptide derived from Amblyomin-X with targeted delivery to mitochondrial and cytoplasmic proteins” (PLOS One, 2025).

No end group written: not given here.

Data set [1] relates to tumor cells. Particulars: isolated domain of Amblyomin-X. The source says: Amblyomin-X is a promising antitumoral protein that requires cellular internalization to exert its activity.
Data set [2] relates to tumor cells. Particulars: isolated domain of Amblyomin-X. The source says: One promising candidate has emerged from Amblyomin-X, a Kunitz-type protease inhibitor derived from the salivary glands of the tick Amblyomma sculptum. […] Structurally, Amblyomin-X consists of two distinct regions: a non-permeant Kunitz-type domain located at the N-terminus, which mediates the protein’s cytotoxic activity, and a disordered C-terminal tail.
This is another data set of the same source.

In the case of “EEQTHFHFESPKLISFKVQDYWILNDIMKKNLTGISLKSEEEDADSGEID [cAmbly]”, in the data set on tumor cells [1], the “ability to enter cells” value is listed as “can penetrate cells”. In the data set on tumor cells [2], the cytotoxic activity result was “lacks cytotoxic activity”.
